Measurements: ChEMBL document CHEMBL3507680, “University of Dundee, Gates Library screen for HepG2 cell viability”

Assay: Human HepG2 cell viability assay in 384 well format
Format: toxicity, cell-based
Parameters: dose 125 nL, time 70.5 hour; cytotoxicity at 70.5 h: concentration not given beside the values
Settings: HepG2 cells, read-out: Inhibition

Row | SMILES | cytotoxicity at 70.5 h
1 | CC(Cn1cccn1)NC(=O)CCc1ccc(S(N)(=O)=O)cc1 (stereo unspecified) | -15.1%
2 | CSCC(=O)N[C@H]1CC[C@H](Nc2nccc(-c3ccncc3)n2)C1 | -0.057%
3 | COCc1cc(N2CCN(C3CCCCC3)CC2)n2nccc2n1 | -4.81%
4 | Cc1ccc(CN2CCc3c(C(=O)N(C)C)nn(C)c3C2)s1 | -5.06%
5 | COc1ccc(C(=O)N(C)Cc2cc(C)on2)c(OC)c1 | -4.71%
6 | COc1ccc(OCc2nccc(-c3cc(C(=O)O)ccn3)n2)cc1 | -2.16%
7 | CN(C)c1ncc(-c2ccncc2)c(CCNC(=O)C2CC2)n1 | -5.57%
8 | COc1ccc(CN(Cc2ccsc2)CC2CCCO2)cn1 (stereo unspecified) | -2.5%
9 | Cc1cnc(N2CCN(C)CC2)nc1-c1ccnn1C | -13.9%
10 | CNC(=O)[C@@H]1C[C@H]2CN(c3ncccn3)C[C@H]2N1C(C)C | -1.97%
11 | CC(C)=CCn1ncc(N2CCOCC2)cc1=O | -1.75%
12 | CCC(=O)NCC(=O)N(C)C(c1ccc(Cl)cc1)c1cccnc1 (stereo unspecified) | -1.51%
13 | Cn1cccc1C(=O)N1C[C@@H]2COC[C@]2(CNS(C)(=O)=O)C1 | -1.05%
14 | c1ccc(Cn2cc3c(n2)C(CNCc2ccco2)OCC3)nc1 (stereo unspecified) | -0.917%
15 | CCn1c(Cn2cncn2)nnc1C1CCN(Cc2cccnc2)CC1 | 9.57%
16 | CC1CCN(C(=O)C2CCCN(C(=O)Nc3ccccn3)C2)CC1 (stereo unspecified) | -9.24%
17 | Cc1occc1C(=O)N1CCc2c(COCC3CC3)cncc2C1 | -2.87%
18 | Cc1ccc(C#N)c(N2CCC(c3nccn3Cc3cscn3)CC2)n1 | -8.13%
19 | Cc1cc(=O)[nH]c(-c2cccc(CN3CCCN4CCCC4C3)c2)n1 (stereo unspecified) | -5.83%

Row | SMILES | cytotoxicity at 70.5 h
20 | COCC1(C(=O)N2CCC(c3nccn3CC3CC3)CC2)CCC1 | 2.4%
21 | Cc1cc(C)n(CC2CCCCN2C(=O)c2ccc(C(N)=O)cc2)n1 (stereo unspecified) | -12%
22 | CCc1cccc(N2CCC(NC(=O)c3ccoc3C)CC2)c1 | 19.4%
23 | O=C(Cc1cccc(F)c1)NCCNCc1cccc(O)c1 | 0.873%
24 | O=C(c1ccc(F)cc1)N1CCC2(CC1)CC(N1CCOCC1)C2 | -13.1%
25 | COCCc1noc(CN2CCCC2c2noc(C)n2)n1 (stereo unspecified) | -0.394%
26 | CNc1ncccc1C(=O)N1CCC2(CCN(C)C2)CC1 | 2.78%
27 | CCc1nc(CNC(=O)c2ccc(C(C)N3CCCCC3)o2)cc(=O)[nH]1 (stereo unspecified) | -6.44%
28 | Cc1noc(C)c1CN1CC2(CCCCN2c2cncnc2)CC1=O (stereo unspecified) | -3.04%
29 | Cc1cccc(CN2CC[C@H]3C[C@H](C)O[C@@H]3C2)n1 | -4.58%
30 | Nc1ncnc2c1ncn2[C@H]1CCN(Cc2ccsc2)CC[C@@H]1O | -6.05%
31 | O=C(c1ccccc1)N1Cc2nccn2CC(Cn2ncccc2=O)C1 (stereo unspecified) | -6.78%
32 | Cc1ccc(OCC(=O)NS(=O)(=O)c2cccnc2)cc1C | 23.3%
33 | COc1c(C2CCCN2C(=O)c2cc(C)on2)c(C)nn1C (stereo unspecified) | -8.13%
34 | CC(C)CC(=O)N1C[C@H]2CCCN(S(=O)(=O)c3ccc(Cl)s3)[C@H]2C1 | 14.6%
35 | Cc1ccc(CN2CCC(c3cnccn3)CC2)s1 | -3.44%
36 | COc1ccccc1CNC(Cc1cccs1)c1nc(C)c(C)s1 (stereo unspecified) | 8.5%
37 | Cc1nccc(CNC(=O)N(CCCO)C2CCc3ccccc32)n1 (stereo unspecified) | 30.5%
38 | Cc1nc2ccccc2c(=O)n1CCC(=O)N1CCCC1 | -6.75%

Row | SMILES | cytotoxicity at 70.5 h
39 | CC(C)CNC(=O)Nc1cccc(CN2CCOC2=O)c1 | -6.71%
40 | CCc1nc2ccccc2c(=O)n1CC1(O)CCN(C(=O)C2CC2)CC1 | -11.5%
41 | CCOC(=O)c1ccc(NC(=O)Cn2cc(I)cn2)cc1 | -4.39%
42 | COC(=O)c1ccc(N2CCN(CCN3CCOCC3)C(C)C2)cc1 (stereo unspecified) | -6.62%
43 | O=C(CCC1CCCN(C(=O)CCN2CCCCO2)C1)N1CCCC1 (stereo unspecified) | -5.73%
44 | O=C(NCCCNc1ccc(C(F)(F)F)cn1)c1ccc(F)cc1 | -18.9%
45 | COCCNc1nc(N2CCOCC2)nc2nccnc12 | -4.36%
46 | O=C(NCC1CC1)C1=NOC2(CCN(S(=O)(=O)c3ccc(F)cc3)C2)C1 (stereo unspecified) | -0.024%
47 | COC(=O)COc1ccc(-c2noc(C3CCCO3)n2)cc1 (stereo unspecified) | 24.5%
48 | COC(=O)CNC(=O)c1cccc(C(=O)N(C)c2ccccc2)c1 | 30.5%
49 | COc1ccc(CN2CC[C@H]3[C@H](CO[C@H]3CNC(=O)N(C)C)C2)cc1 | -0.91%
50 | CCn1cc(SCC(=O)N2CCCC(O)(CO)C2)c2ccccc21 (stereo unspecified) | -8.91%
51 | CCOCCNC(=O)Nc1ccc(OCc2noc(C3CC3)n2)cc1 | -7.9%
52 | Cc1nc(CN2CCCC(Cn3cncn3)C2)no1 (stereo unspecified) | 15.8%
53 | Cc1cccnc1CN(C)c1ncnc2[nH]ccc12 | -6.05%
54 | CCc1ccc(C2CCCN2C(=O)NCC(=O)NCC(C)C)o1 (stereo unspecified) | 21.4%
55 | COc1ccc(S(=O)(=O)N2CCn3cnc(COCC4CC4)c3C2)cc1 | 10.3%
56 | O=C(O)c1ccnc(SCC(F)(F)F)c1 | -10.8%
